# Laboratory results from paper PMC5838219 (2018).
# Legend:
# [1] = test system: dGsw^121,caged (RNA, riboswitch, (S)-NPE photocage at C4 position of nucleobases of U108, U110 and U112) AAUGAAUAUAAAAGAAACUUAUACAGGGUAGCAUAAUGGGCUACUGACCCCGCCUUCAAACCUAUUUGGAGACUAUAAGUGAAAAACCACUCUUUAAUUAUUAAAGUUUCUUUUUAUGUC; assay: NMR (1H,15N-TROSY, imino protons); settings: 50 mM KCl, 25 mM K phosphate, 6 eq. Mg2+; pH 6.2, 298 K; 100 µM RNA, 2 eq. ligand; before photolysis
# [2] = test system: dGsw^121 (RNA, riboswitch) AAUGAAUAUAAAAGAAACUUAUACAGGGUAGCAUAAUGGGCUACUGACCCCGCCUUCAAACCUAUUUGGAGACUAUAAGUGAAAAACCACUCUUUAAUUAUUAAAGUUUCUUUUUAUGUC; assay: NMR (1H,15N-TROSY, imino protons); settings: 50 mM KCl, 25 mM K phosphate, 6 eq. Mg2+; pH 6.2, 298 K; 100 µM RNA, 2 eq. ligand; after photolysis; antiterminator folds only to ~80%
compound,measurement,setting,value
Nc1nc2c(ncn2[C@H]2C[C@H](O)[C@@H](CO)O2)c(=O)[nH]1,binding,[1],yes
same,binding,[2],yes
